Experimental data from patent US20250352514A1, “SALT FORMS OF BIS(3-(2-(DIMETHYLAMINO)ETHYL)-1 H-INDOL-4-YL) 3,3'¬OXYDIPROPIONATE” (priority 2024, published 2025).

Experiment: Initial polymorphism assessment by slurrying in 12 solvents at room temperature, XRPD
Type: physicochemical
Conditions: shaken at room temperature 3-4 days
Source text: The vials were capped, sealed with Parafilm®, and then covered with foil. The experiments were shaken at room temperature for 4 days. After 4 days all the experiments had remained as slurries apart from the experiment in water. Portions of solid were removed from each one and analyzed by XRPD.
The vials were capped, sealed with Parafilm® and then covered with foil. The experiments were shaken at room temperature for 3 days. After 3 days all the experiments had remained as slurries. Portions were removed from each one and analyzed by XRPD.

CN(C)CCc1c[nH]c2cccc(OC(=O)CCOCCC(=O)Oc3cccc4[nH]cc(CCN(C)C)c34)c12
XRPD patterns after slurrying in 12 solvents compared with input material: XRPD patterns consistent with the XRPD pattern of the input material
